These results are taken from patent publication US5384417A, “Heptitols” (priority 1994, dated 1995).

Read-outs that look alike come from different tables or passages of the source.

What all share (assay type): biochemical
The target in assay [1] is T1, β-Mannosidase (Homo sapiens, UniProt O00462).
T1 construct: Human liver glycosidases were assayed; from tissue; host or cells: human liver
T1 sequence (O00462 18-879): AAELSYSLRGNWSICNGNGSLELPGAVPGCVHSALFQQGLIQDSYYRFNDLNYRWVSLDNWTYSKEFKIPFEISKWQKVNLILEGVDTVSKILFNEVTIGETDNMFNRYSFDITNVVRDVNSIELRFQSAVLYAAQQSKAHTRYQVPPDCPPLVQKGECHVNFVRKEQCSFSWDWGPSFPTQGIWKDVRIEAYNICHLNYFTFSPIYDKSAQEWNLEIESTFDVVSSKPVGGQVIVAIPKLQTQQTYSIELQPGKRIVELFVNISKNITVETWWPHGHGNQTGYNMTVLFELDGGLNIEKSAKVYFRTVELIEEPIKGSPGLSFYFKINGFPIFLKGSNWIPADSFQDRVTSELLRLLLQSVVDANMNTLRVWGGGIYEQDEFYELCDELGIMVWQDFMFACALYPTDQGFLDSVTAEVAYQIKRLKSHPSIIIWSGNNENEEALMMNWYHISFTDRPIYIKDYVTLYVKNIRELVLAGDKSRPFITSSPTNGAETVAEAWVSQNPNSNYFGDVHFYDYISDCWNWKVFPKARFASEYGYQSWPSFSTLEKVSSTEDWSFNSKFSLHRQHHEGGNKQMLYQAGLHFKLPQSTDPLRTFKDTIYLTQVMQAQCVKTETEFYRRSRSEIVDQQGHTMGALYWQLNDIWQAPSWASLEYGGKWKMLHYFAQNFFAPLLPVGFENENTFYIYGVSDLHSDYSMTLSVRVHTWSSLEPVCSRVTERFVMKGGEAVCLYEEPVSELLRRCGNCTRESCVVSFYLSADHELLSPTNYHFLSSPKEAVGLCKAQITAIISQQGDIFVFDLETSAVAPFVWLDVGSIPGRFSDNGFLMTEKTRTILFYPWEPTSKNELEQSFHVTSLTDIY
The experiment in a line: inhibition of human liver β-mannosidase. To be noted: read-out: % Inhibition of Glycosidase Activity, β-Mannosidase. As to the method:
(§1) Human liver glycosidases were assayed in the absence and presence [1 mM] of each of the potential inhibitors, using the appropriate buffered 4-methylumbelliferyl glycosides as substrates, as previously described.^17 See Table I, below.

The target in assay [2] is T2, Lysosomal α-Mannosidase (Homo sapiens, UniProt O00754).
T2 construct: Human liver glycosidases were assayed; from tissue; host or cells: human liver
T2 sequence (O00754 50-1011): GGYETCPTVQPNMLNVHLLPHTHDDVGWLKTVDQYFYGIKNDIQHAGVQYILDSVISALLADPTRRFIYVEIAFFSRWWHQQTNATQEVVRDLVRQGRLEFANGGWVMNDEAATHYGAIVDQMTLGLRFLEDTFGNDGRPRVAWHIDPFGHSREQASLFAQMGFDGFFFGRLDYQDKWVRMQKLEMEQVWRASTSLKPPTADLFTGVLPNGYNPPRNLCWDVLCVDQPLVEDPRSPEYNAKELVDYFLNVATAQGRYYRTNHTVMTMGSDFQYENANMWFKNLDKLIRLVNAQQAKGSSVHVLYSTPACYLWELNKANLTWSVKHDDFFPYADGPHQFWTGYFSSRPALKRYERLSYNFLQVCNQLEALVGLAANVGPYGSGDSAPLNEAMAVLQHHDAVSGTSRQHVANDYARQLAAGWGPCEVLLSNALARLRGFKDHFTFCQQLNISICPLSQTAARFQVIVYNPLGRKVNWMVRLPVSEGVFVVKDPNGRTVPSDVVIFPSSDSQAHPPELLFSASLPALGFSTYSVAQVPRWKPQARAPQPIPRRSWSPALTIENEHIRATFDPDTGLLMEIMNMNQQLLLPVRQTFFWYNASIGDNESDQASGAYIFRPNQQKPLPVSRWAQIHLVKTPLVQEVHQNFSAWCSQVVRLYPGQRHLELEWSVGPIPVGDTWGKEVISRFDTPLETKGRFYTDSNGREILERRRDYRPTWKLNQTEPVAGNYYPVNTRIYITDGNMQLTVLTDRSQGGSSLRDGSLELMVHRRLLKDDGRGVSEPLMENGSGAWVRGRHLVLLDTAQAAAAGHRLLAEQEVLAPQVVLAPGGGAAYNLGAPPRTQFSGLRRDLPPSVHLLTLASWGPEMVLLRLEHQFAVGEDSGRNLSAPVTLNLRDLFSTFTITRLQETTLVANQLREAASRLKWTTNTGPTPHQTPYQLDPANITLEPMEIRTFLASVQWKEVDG
The experiment in a line: inhibition of human liver lysosomal α-mannosidase. Conditions: for inhibition at 1000 µM: 1 mM inhibitor, read-out: % Inhibition of Glycosidase Activity, α-Mannosidase Lysosomal. As to the method:
as §1

Assay [3] concerns α-Glucosidase. Kind of assay: inhibition of human liver α-glucosidase. Conditions: 1 mM inhibitor. As to the method: as §1

Turning to `OC[C@@H](O)[C@H]1NC[C@@H](O)[C@H]1O` [DIM (3)], the inhibition at 1000 µM is 0% in assay [1] (1 mM inhibitor) and 97% in assay [2]. In addition, the “% Inhibition of Glycosidase Activity, α-Glucosidase” value (“% Inhibition” below) in assay [3] is 0%.
For `OC[C@H]1NC[C@@H](O)[C@@H](O)[C@@H]1O` [DMJ (1), deoxymannojirimycin], the inhibition at 1000 µM in assay [1] turned out to be 0%; in assay [2] it was 58%. The “% Inhibition” value in assay [3] is listed as 21%.
Turning to `NC[C@H]1O[C@H]([C@H](O)CO)[C@H](O)[C@@H]1O` [Manhepamine (5), 1-amino-2,5-anhydro-1-deoxy-D-glycero-D-talo-heptitol], the values for the inhibition at 1000 µM in assay [1] (1 mM inhibitor) and in assay [2] were 3% and 2%, respectively. Also, the “% Inhibition” value in assay [3] stood at 0%.
Turning to `OC[C@@H](O)[C@H]1N[C@H](CO)[C@@H](O)[C@H]1O` [αHomoDIM (4), 2,5-dideoxy-2,5-imino-D-glycero-D-talo-heptitol], the figures for the inhibition at 1000 µM in assay [1] (1 mM inhibitor) and in assay [2] were 18% and 71%, respectively. In assay [2] (compared with DIM (3)), the “inhibition of lysosomal α-mannosidase (in words)” value was “decreases the inhibition of the lysosomal and neutral enzymes”. Further, the “% Inhibition” value in assay [3] is 12%.
As to `OC[C@H]1N[C@H](CO)[C@@H](O)C(O)[C@@H]1O` (stereo partly shown) [αHomoDMJ (2)], the inhibition at 1000 µM in assay [1] (1 mM inhibitor) was 0%; in assay [2], 49%. Moreover, the “% Inhibition” value in assay [3] came to 4%.
